Laboratory results reported in patent publication US12318365B2, “Inhibition of dipeptide repeat proteins” (ALS Therapy Development Institute, priority 2019, dated 2025).
Entries after “also recorded” stand apart in the source; their conditions may differ. No end group written: not given here.

Experiments:
[1] = test system: NSC-34 motor-neuron-like cells; assay: WST-1 assay (dysmetabolism) in NSC-34 cells; type: cell-based, Mouse; settings: for reduction of metabolic activity in NSC-34 compared to CHO: DRP 30 and 3 μM, 48 h
Excerpt: WST-1 Assay: The WST-1 assay is a colorimetric assay that measures cell metabolism. Cells with a healthy metabolism contain mitochondrial dehydrogenase enzymes that remove hydrogen atoms from certain molecules, resulting in a release of energy that the cell can use to perform critical reactions. In the WST-1 assay, a water soluble tetrazolium salt substrate (known as WST-1) is applied, which readily enters cells and their mitochondria upon application. If cells are viable, their mitochondrial dehydrogenase enzymes will catalyze the reaction to convert this WST-1 substrate to a colored product called Formazan. The production of this colored Formazan product by viable cells can be quantified using a spectrophotometer (plate reader). Higher absorbance readings correspond to greater metabolic activity/cell viability.
NSC-34 Cell Culture: NSC-34 cells (Cedarlane Laboratories, Burlington, ON, CA) were cultured in a complete medium consisting of High Glucose Dulbecco's Modified Eagle Medium (Millipore-Sigma, Burlington, MA, USA) supplemented with 10% US-origin fetal bovine serum (Thermo-Fisher Scientific, Cambridge, MA, USA), 1% 200 mM L-Glutamine solution (Thermo-Fisher Scientific, Cambridge, MA, USA), and 1% 10,000 U/mL Penicillin-Streptomycin solution (Thermo-Fisher Scientific, Cambridge, MA, USA). Prior to preparation of NSC-34 complete medium, L-Glutamine and Penicillin-Streptomycin solutions were aliquoted and stored at −20° C., and DMEM/High Glucose was stored at 4°. […] Prepared complete medium, DPBS, and Trypsin were always heated in a 37° C. water bath before use, and stored at 4° C. between uses. Cell counts for plating were performed using a Hausser Scientific cell counting chamber (Thermo-Fisher Scientific, Cambridge, MA, USA).
Proteins were reconstituted in sterile DMSO (Millipore-Sigma, Burlington, MA, USA) to stock concentrations of 10 mM, and stored at 4° C.
After reconstitution using the solvents specified in Table _, stocks were aliquoted to 15-20 μL and immediately stored at −20° C.
One row on the top and bottom of the plate, and two columns on either side of the plate, were left without cells and contained culture medium only to minimize experimental well volume evaporation. After plating, cells were incubated for 24 h at 37° C., 5% CO2 prior to DRP and/or PRMT inhibitor addition. At time of DRP/PRMT inhibitor addition, desired doses of DRP for challenge and inhibitor for treatment were achieved by diluting aliquots of each stock in warm culture medium. During experiments where both PRMT inhibitors and DRPs were used, PRMT inhibitors were always applied to wells first, and followed by DRP application. […] Inhibitor toxicity controls were included as wells treated with the desired doses of drug for the experiment, but no DRP. DRP toxicity controls were included as wells only treated with the doses of DRP used for challenge. […] Additional controls needed for each endpoint are specified in the “WST-1 Assay” and “LDH Assay” sections of these methods.
WST-1 Assay: Cells were plated and prepared using the steps described in the “Plating NSC-34 and Dosing with DRPs and PRMT Inhibitors” section of these methods. Other controls for this experiment included wells containing only cells in culture medium, and culture medium only. At time of testing, culture medium was removed from wells and replaced with a warmed, sterile-filtered solution consisting of DPBS with calcium and magnesium, and 4.5 g/L D-glucose (Millipore-Sigma, Burlington, MA, USA). To wells containing 200 μL DPBS-glucose solution, 20 μL/well WST-1 reagent (Millipore-Sigma, Burlington, MA) was applied and plates were then incubated at 37° C., 5% CO2 for 1 h before plates were read at 450 nm on a SpectraMax M3 Microplate Reader (Molecular Devices, San Jose, CA, USA). Experiments included three replicates per condition.

NSC-34 cells = assay: BrdU ELISA (proliferation) in NSC-34 cells; type: cell-based, Mouse; settings: for abrogation of GR-induced proliferation inhibition: 300 nM GR15, 24 h; for effect of DRP on proliferation activity: compared to DMSO-treated controls
Description: BrdU ELISA: The BrdU ELISA is an ELISA detecting cell proliferation activity. BrdU is a pyrimidine analog that, when inside the cell, can be incorporated instead of thymidine into newly synthesized strands of DNA. Just as is indicated by thymidine incorporation into DNA, BrdU incorporation into cell DNA indicates DNA synthesis activity, which is required for cell proliferation. In the BrdU ELISA, cells are treated with test compounds as well as BrdU reagent, and then incubated for 24 hours before testing. During testing, an anti-BrdU antibody detects the incorporation of BrdU into cell DNA that occurred over the 24-hour period, as a surrogate for cell proliferation activity. This anti-BrdU antibody is then labelled with a secondary antibody tagged with a colored substrate, which can be quantified spectrophotometrically. Greater absorbance readings correspond to more cell proliferation activity.
Cells were plated in culture medium in 2 96-well plates at a density of 3.7×10^4 cells per well, and incubated overnight at 37° C., 5% CO2.
The following conditions were plated in triplicate.
Plates were incubated for 24 h at 37° C., 5% CO2. Cells were tested and data were analyzed using the procedure detailed in BrdU ELISA kit instructions.
Cells were plated in culture medium in 2 96-well plates at a density of 5×10^4 cells per well, and incubated overnight at 37° C., 5% CO2. […] 10 μL of each concentration would be added to 100 μL base media in plate to achieve final concentrations of 3, 1, 0.3, 0.1, 0.03, and 0.01 μM DRP.
The following conditions were plated in triplicate. Samples were surrounded by border wells on the outside of the plate filled with sterile Phosphate-buffered saline to prevent evaporation of volume in experimental wells during incubation; • Culture medium only • Background (Cells only in culture medium, without BrdU reagent) • Untreated (Cells only in culture medium, with BrdU reagent) • DMSO Controls (Cells treated with BrdU reagent and the amount of DMSO that DRP-treated cells were exposed to at each concentration) • i. The DMSO controls tested were as follows, corresponding to DRP doses starting at the highest (3 μM to the lowest 0.01 μM), and were diluted in culture medium: • 1. 0.03% DMSO • 2. 0.01% DMSO • 3. 0.003% DMSO • 4. 0.001% DMSO • 5. 0.0003% DMSO • 6.

| Compound | abrogation of ADMe-GR15-induced dysmetabolism ([1]; 3 μM ADMe-GR15 challenge, 24 h, MS023 0.1-10 μM, three repeats) | lowest dose with significant partial abrogation of dysmetabolism in GR-treated cells ([1]; 3 μM GR15, 24 h, MS023 0.01-3 μM) | dose dependence of abrogation of GR15-induced dysmetabolism ([1]; 3 μM GR15 challenge, 24 h, dose range of the example) | abrogation of GR-induced dysmetabolism ([1]; 3 μM GR15 challenge, 24 h, inhibitor dose 3 μM) | abrogation of GR15-induced dysmetabolism ([1]; 3 μM GR15 challenge, 24 h, inhibitor doses 1 and 3 μM) | relative potency against GR- vs PR-induced dysmetabolism ([1]; 3 μM GR15 or PR15, 24 h, MS023 0.01-3 μM) | lowest dose with significant partial abrogation of dysmetabolism in PR-treated cells ([1]; 3 μM PR15, 24 h, MS023 0.01-3 μM) | dose dependence of abrogation of PR15-induced dysmetabolism ([1]; 3 μM PR15 challenge, 24 h, dose range of the example) | abrogation of PR15-induced dysmetabolism ([1]; 3 μM PR15 challenge, 24 h, inhibitor doses 1 and 3 μM) | dysmetabolism independently of DRP challenge ([1]; no DRP, over all doses tested) | abrogation of GR-induced proliferation inhibition (NSC-34 cells; all doses (1-60 μM)) | abrogation of GR-induced proliferation inhibition (NSC-34 cells; dose 3 μM) | excessive proliferation (NSC-34 cells; 300 nM GR15 or PR15, 24 h, all doses tested (1-60 μM)) | abrogation of PR-induced proliferation inhibition (NSC-34 cells; 300 nM PR15, 24 h, all doses (1-60 μM)) | dysmetabolism induced by DRP challenge ([1]; DRP 10 nM-3 μM, 24 h) | reduction of metabolic activity in NSC-34 compared to CHO [1] | effect of DRP on proliferation activity (NSC-34 cells; DRP 0.01-3 μM, 24 h) | rank among DRPs as inhibitor of proliferative activity (NSC-34 cells; DRP 0.01-3 μM, 24 h) |
| --- | --- | --- | --- | --- | --- | --- | --- | --- | --- | --- | --- | --- | --- | --- | --- | --- | --- | --- |
| CC(C)Oc1ccc(-c2c[nH]cc2CN(C)CCN)cc1 [MS023] | did not abrogate | 0.1 µM | in a dose-dependent manner; also recorded: consistently dose-dependently abrogated | abrogated GR-induced dysmetabolism | completely abrogated | more potently abrogated GR-induced dysmetabolism | 0.3 µM | in a dose-dependent manner; also recorded: dose-dependently abrogated | completely abrogated | No doses of MS023 tested induced dysmetabolism; also recorded: No doses of MS023 tested produced dysmetabolism | partially abrogated | fully rescuing | without inducing excessive proliferation | fully abrogated |  |  |  |  |
| GRGRGRGRGRGRGRGRGRGRGRGRGRGRGR [GR15] |  |  |  |  |  |  |  |  |  |  |  |  |  |  | induced dose-dependent dysmetabolism | significantly greater reduction of metabolic activity in NSC-34 | significantly suppressed proliferative activity in a dose-dependent manner |  |
| PRPRPRPRPRPRPRPRPRPRPRPRPRPRPR [PR15] |  |  |  |  |  |  |  |  |  |  |  |  |  |  |  | significantly greater reduction of metabolic activity in NSC-34 | significantly suppressed proliferative activity in a dose-dependent manner | the strongest inhibitor |
